Test results published in patent US20170035011A1, “METHODS OF IMPROVING GERMINATION OF PLANT EMBRYOS” (WEYERHAEUSER NR COMPANY, priority 2015, published 2017).

What was measured:
[1] = test system: loblolly pine embryos; test: Germination and germinant organ lengths of resulting embryos, Example 2; type: in vivo
From the text: As used herein, the term “germination” refers to a physiological process that results in the elongation and growth of a plant embryo organs (root, hypocotyls, cotyledons) and initiation of leaves (epicotyl by the shoot apex located at the base of the cotyledons) after 1 week in the dark followed by 6 weeks in a light room at room temperature.
As used herein, the term “category 1” germination is defined by presence of a minimum of a 3 mm root, and a tuft of at least 5 epicotyl leaves, each approximately 5 mm long.
“Category 2” germination is defined as for category 1, but where epicotyls leaf presence is observed, but not meeting the 5 leaves by 5 mm length specification.
Several parameters may be measured to determine the quality of the germinants, such as root, hypocotyl, longest cotyledon leaf length, and epicotyls leaf length. […]
The responses analyzed for this report are the weekly growth, embryos per d-frame, category 1 germination, and for category 1+2: germination, germinants per d-frame, root length, the hypocotyl length, and the epicotyl length.
The proportion responses are analyzed using a generalized linear model with a logit link and binomial distribution after categorizing as a 0/1 response. The continuous responses were analyzed with a mixed linear model after taking the log transformation to account for increasing variability with higher means. […]

[2] = test system: manufactured seed; test: Root initiation with palatinose in synthetic gametophyte of manufactured seed; type: in vivo; conditions: palatinose from 0 to 40 g/l in 20 g/l increments; base sugar sucrose or glucose
From the text: The beneficial properties of palatinose are not limited to multiplication. The addition of palatinose to the synthetic gametophyte of manufactured seed has benefits for root initiation. […] This is true when the base sugar was sucrose or glucose.

[3] = test system: loblolly pine SE; test: Development stage studies with palatinose in maltose and glucose media; type: cell-based; conditions: standard maltose and glucose media
From the text: In loblolly pine SE studies, palatinose was initially used as a non-metabolizable sugar for supplementing osmotic level. […] When used as a part of liquid multiplication media its effect depended on the sugar moieties it was associated with, and its ratio with those moieties. When paired with maltose alone, growth was largely or completely halted depending on sugar ratio, whereas when used with glucose, growth was like control (maltose only).

O=C(CO)[C@@H](O)[C@H](O)[C@H](O)CO[C@H]1O[C@H](CO)[C@@H](O)[C@H](O)[C@H]1O [palatinose, 6-O-α-d-glucopyranosyl-D-fructose]
category 1 germination percentage ([1]; combining the outcomes of 3, 5, and 7 weeks of treatment): 9.1% | root presence [2]: root presence improved | embryo formation [3]: inhibited embryo formation

OC[C@H]1O[C@H](O[C@H]2O[C@H](CO)[C@@H](O)[C@H](O)[C@H]2O)[C@H](O)[C@@H](O)[C@@H]1O [trehalose]
Category 1 germination ([1]; Table 7 comparison): no evidence that adding trehalose had an effect
